What was measured:
H1047R PIK3CA enzyme = H1047R PIK3CA enzyme (Homo sapiens, UniProt P42336, H1047R); assay: ADP-Glo Biochemical PIK3CA Kinase Assay
cells = conditions: Homo sapiens, MCF-10A, read-out: MCF10A I50

Sequence of H1047R PIK3CA enzyme (P42336 whole entry H1047R): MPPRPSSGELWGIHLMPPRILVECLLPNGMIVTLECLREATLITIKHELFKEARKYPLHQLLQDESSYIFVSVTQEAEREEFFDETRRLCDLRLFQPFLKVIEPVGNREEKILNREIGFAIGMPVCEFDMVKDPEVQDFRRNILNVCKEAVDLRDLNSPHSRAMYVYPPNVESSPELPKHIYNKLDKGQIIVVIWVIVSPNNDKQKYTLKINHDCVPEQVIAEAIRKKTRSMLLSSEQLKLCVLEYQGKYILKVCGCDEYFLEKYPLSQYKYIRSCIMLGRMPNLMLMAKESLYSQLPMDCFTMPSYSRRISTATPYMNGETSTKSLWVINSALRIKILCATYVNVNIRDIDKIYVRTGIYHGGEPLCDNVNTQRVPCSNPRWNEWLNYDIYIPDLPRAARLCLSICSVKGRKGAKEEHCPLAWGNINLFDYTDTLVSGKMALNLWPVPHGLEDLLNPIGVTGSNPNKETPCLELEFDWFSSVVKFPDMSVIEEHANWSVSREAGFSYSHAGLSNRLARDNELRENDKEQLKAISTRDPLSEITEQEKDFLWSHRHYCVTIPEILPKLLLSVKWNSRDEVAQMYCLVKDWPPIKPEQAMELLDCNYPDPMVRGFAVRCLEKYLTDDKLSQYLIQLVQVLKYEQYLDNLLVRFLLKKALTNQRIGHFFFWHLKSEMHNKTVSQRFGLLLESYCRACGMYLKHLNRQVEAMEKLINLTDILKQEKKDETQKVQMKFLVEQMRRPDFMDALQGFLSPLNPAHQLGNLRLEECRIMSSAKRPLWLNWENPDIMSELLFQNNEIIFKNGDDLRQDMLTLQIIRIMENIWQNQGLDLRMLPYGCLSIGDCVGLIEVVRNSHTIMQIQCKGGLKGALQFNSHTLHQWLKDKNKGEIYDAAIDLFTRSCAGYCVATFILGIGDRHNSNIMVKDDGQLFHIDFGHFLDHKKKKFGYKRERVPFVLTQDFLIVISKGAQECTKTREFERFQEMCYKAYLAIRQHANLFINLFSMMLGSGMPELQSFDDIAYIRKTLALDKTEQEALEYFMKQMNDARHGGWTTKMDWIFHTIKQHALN
Sequence of H1047R PIK3CA enzyme (P27986 whole entry partner): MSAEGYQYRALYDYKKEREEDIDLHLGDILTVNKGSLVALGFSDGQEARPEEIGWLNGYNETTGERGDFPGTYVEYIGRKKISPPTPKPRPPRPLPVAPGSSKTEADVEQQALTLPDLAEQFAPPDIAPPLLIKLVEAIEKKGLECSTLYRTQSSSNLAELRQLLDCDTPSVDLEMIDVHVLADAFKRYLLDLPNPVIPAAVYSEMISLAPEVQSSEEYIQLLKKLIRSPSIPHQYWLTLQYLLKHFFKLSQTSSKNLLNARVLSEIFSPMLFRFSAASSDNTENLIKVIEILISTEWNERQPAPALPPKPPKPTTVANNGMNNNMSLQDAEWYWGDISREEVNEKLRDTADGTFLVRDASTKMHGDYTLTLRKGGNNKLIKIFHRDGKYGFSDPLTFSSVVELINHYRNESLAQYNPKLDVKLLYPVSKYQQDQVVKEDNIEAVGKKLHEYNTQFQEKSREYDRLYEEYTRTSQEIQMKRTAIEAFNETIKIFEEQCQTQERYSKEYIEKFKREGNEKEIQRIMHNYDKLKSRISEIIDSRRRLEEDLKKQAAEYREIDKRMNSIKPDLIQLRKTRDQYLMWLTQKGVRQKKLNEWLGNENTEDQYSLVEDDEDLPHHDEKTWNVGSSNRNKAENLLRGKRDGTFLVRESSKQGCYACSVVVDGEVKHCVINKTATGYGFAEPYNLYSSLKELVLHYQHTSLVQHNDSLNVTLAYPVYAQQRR

SMILES | IC50 (H1047R PIK3CA enzyme) | IC50 (cells)
Cc1ccccc1Nc1ncc(C(=O)NCC2CS(=O)(=O)C2)cc1NC(=O)c1csc2ccccc12 [I-137] | 0.1 to 0.5 µM | 5 to 10 µM
Cc1ccccc1Nc1ncc(C(=O)NCc2nccs2)cc1NC(=O)c1csc2ccccc12 [I-138] | ≤ 0.1 µM | 5 to 10 µM
CNC(=O)c1cnc(Nc2ccccc2C)c(NC(=O)c2nsc3ccccc23)c1 [I-139] | 0.5 to 1 µM | 10 to 36 µM
Cc1ccccc1Nc1ncc(-c2cnn(C)c2)cc1NC(=O)c1csc2ccc(F)cc12 [I-146] | 0.1 to 0.5 µM | 1 to 5 µM
CNC(=O)c1cnc(Nc2ccccc2C)c(NC(=O)c2csc3ccc(Cl)cc23)c1 [I-149] | 0.1 to 0.5 µM | 10 to 36 µM
CNC(=O)c1cnc(Nc2ccccc2C)c(NC(=O)c2csc3ccc(F)cc23)c1 [I-150] | 0.1 to 0.5 µM | 5 to 10 µM
Cc1ccccc1Nc1ncc(C(=O)NCc2ccn(C)n2)cc1NC(=O)c1cc(F)cc(C(F)(F)F)c1 [I-178] | 0.1 to 0.5 µM | 1 to 5 µM
O=C(NC1CS(=O)(=O)C1)c1cnc(N2CCCc3ccccc32)c(NC(=O)c2csc3ccccc23)c1 [I-180] | 0.1 to 0.5 µM | 10 to 36 µM
O=C(NCc1nccs1)c1cnc(N2CCCc3ccccc32)c(NC(=O)c2csc3ccccc23)c1 [I-181] | 0.1 to 0.5 µM | 10 to 36 µM
COCCNC(=O)c1cnc(Nc2ccccc2C)c(NC(=O)c2csc3ccccc23)c1 [I-190] | 0.1 to 0.5 µM | 10 to 36 µM
Cc1ccccc1Nc1ncc(C(=O)NCc2ccc(Cl)cc2)cc1NC(=O)c1csc2ccccc12 [I-191] | 0.1 to 0.5 µM | 1 to 5 µM
Cc1ccccc1Nc1ncc(C(=O)NC2COC2)cc1NC(=O)c1csc2ccccc12 [I-192] | 0.1 to 0.5 µM | 36 to 100 µM
Cc1ccccc1Nc1ncc(C(=O)NCc2cccnc2)cc1NC(=O)c1csc2ccccc12 [I-193] | 0.1 to 0.5 µM | 5 to 10 µM
Cc1ccccc1Nc1ncc(C(=O)NCC2CCCO2)cc1NC(=O)c1csc2ccccc12 (centres unmarked) [I-195] | 0.1 to 0.5 µM | 10 to 36 µM
Cc1ccccc1Nc1ncc(C(=O)NCC(F)(F)F)cc1NC(=O)c1csc2ccccc12 [I-196] | 0.1 to 0.5 µM | 5 to 10 µM
Cc1ccccc1Nc1ncc(C(=O)NC(C)c2ccccc2)cc1NC(=O)c1csc2ccccc12 (centres unmarked) [I-197] | ≤ 0.1 µM | 10 to 36 µM
Cc1ccccc1Nc1ncc(C(=O)NCC2CCOCC2)cc1NC(=O)c1csc2ccccc12 [I-198] | 0.1 to 0.5 µM | 10 to 36 µM
COc1cncc(CNC(=O)c2cnc(Nc3ccccc3C)c(NC(=O)c3csc4ccccc34)c2)c1 [I-199] | 0.1 to 0.5 µM | 10 to 36 µM
O=C(Nc1cc(C(=O)NC2CS(=O)(=O)C2)cnc1N1CCCc2ccccc21)c1cc(F)cc(C(F)(F)F)c1 [I-208] | 0.5 to 1 µM | 5 to 10 µM
O=C(NCc1nccs1)c1cnc(N2CCCc3ccccc32)c(NC(=O)c2cc(F)cc(C(F)(F)F)c2)c1 [I-209] | 0.5 to 1 µM | 10 to 36 µM
Cn1nccc1CNC(=O)c1cnc(N2CCCc3ccccc32)c(NC(=O)c2cc(F)cc(C(F)(F)F)c2)c1 [I-210] | 1 to 10 µM | 36 to 100 µM
Cc1ccccc1Nc1ncc(C(=O)NCC2CC(F)(F)C2)cc1NC(=O)c1cc(F)cc(C(F)(F)F)c1 [I-211] | 0.1 to 0.5 µM | 1 to 5 µM
Cc1ccccc1Nc1ncc(C(=O)NC2CC(F)(F)C2)cc1NC(=O)c1cc(F)cc(C(F)(F)F)c1 [I-212] | 0.1 to 0.5 µM | 1 to 5 µM

SMILES | IC50 (H1047R PIK3CA enzyme) | IC50 (cells)
CNC(=O)c1cnc(N2C(=O)NCc3ccccc32)c(NC(=O)c2csc3ccccc23)c1 [I-215] | 1 to 10 µM | 36 to 100 µM
Cc1ccccc1Nc1ncc(C(=O)NCCS(C)(=O)=O)cc1NC(=O)c1cc(F)cc(C(F)(F)F)c1 [I-219] | 0.1 to 0.5 µM | 1 to 5 µM
Cc1cc(NC(=O)c2cnc(Nc3ccccc3C)c(NC(=O)c3cc(F)cc(C(F)(F)F)c3)c2)n[nH]1 [I-232] | 0.1 to 0.5 µM | 1 to 5 µM
Cc1ccccc1Nc1ncc(C(=O)Nc2ccncc2)cc1NC(=O)c1cc(F)cc(C(F)(F)F)c1 [I-234] | 0.1 to 0.5 µM | < 1 µM
Cc1ccccc1Nc1ncc(C(=O)Nc2cccnc2)cc1NC(=O)c1cc(F)cc(C(F)(F)F)c1 [I-239] | 0.1 to 0.5 µM | 1 to 5 µM
Cc1ccccc1Nc1ncc(C(=O)Nc2ccnnc2)cc1NC(=O)c1cc(F)cc(C(F)(F)F)c1 [I-240] | 0.1 to 0.5 µM | < 1 µM
O=C(NC1CS(=O)(=O)C1)c1cnc(N2CCOc3ccccc32)c(NC(=O)c2csc3ccccc23)c1 [I-245] | 0.1 to 0.5 µM | 5 to 10 µM
Cc1ccccc1Nc1ncc(C(=O)NC2CCCS(=O)(=O)C2)cc1NC(=O)c1cc(F)cc(C(F)(F)F)c1 (centres unmarked) [I-246] | 0.1 to 0.5 µM | < 1 µM
Cc1ccccc1Nc1ncc(C(=O)NC2CCS(=O)(=O)C2)cc1NC(=O)c1cc(F)cc(C(F)(F)F)c1 (centres unmarked) [I-247] | 0.1 to 0.5 µM | < 1 µM
Cc1ccccc1Nc1ncc(C(=O)NC2CC(F)(F)C2)cc1NC(=O)c1csc2ccccc12 [I-248] | 0.1 to 0.5 µM | 1 to 5 µM
CNC(=O)c1cnc(Nc2cccc(F)c2Cl)c(NC(=O)c2cc(F)cc(C(F)(F)F)c2)c1 [I-249] | 0.1 to 0.5 µM | 1 to 5 µM
O=C(NC1(c2cccnc2)CC1)c1cnc(N2CCOc3ccccc32)c(NC(=O)c2csc3ccccc23)c1 [I-256] | 0.1 to 0.5 µM | 1 to 5 µM
Cc1ccccc1Nc1ncc(C(=O)NC2CC3(COC3)C2)cc1NC(=O)c1cc(F)cc(C(F)(F)F)c1 [I-267] | 0.1 to 0.5 µM | < 1 µM
Cc1ccccc1Nc1ncc(C(=O)NC2CC(O)C2)cc1NC(=O)c1cc(F)cc(C(F)(F)F)c1 (centres unmarked) [I-274] | 0.1 to 0.5 µM | 1 to 5 µM
Cc1ccccc1Nc1ncc(C(=O)NC2CCC(O)C2)cc1NC(=O)c1cc(F)cc(C(F)(F)F)c1 (centres unmarked) [I-275] | 0.1 to 0.5 µM | 1 to 5 µM
Cc1ccccc1Nc1ncc(C(=O)NC2CCC(O)CC2)cc1NC(=O)c1cc(F)cc(C(F)(F)F)c1 (centres unmarked) [I-276] | 0.1 to 0.5 µM | 1 to 5 µM
Cc1ccccc1Nc1cc(=O)n(Cc2ccccc2C#N)cc1NC(=O)c1csc2ccccc12 [I-279] | 0.1 to 0.5 µM | 10 to 36 µM
CNC(=O)c1cnc(Nc2ccc(F)cc2)c(NC(=O)c2cc(F)cc(C(F)(F)F)c2)c1 [I-285] | 0.5 to 1 µM | 10 to 36 µM
CNC(=O)c1cnc(Nc2cccc(N)c2)c(NC(=O)c2cc(F)cc(C(F)(F)F)c2)c1 [I-286] | 1 to 10 µM | 10 to 36 µM
CNC(=O)c1cnc(Nc2cccc(Cl)c2)c(NC(=O)c2cc(F)cc(C(F)(F)F)c2)c1 [I-287] | 1 to 10 µM | 36 to 100 µM
CCOc1ccccc1Nc1ncc(C(=O)NC)cc1NC(=O)c1cc(F)cc(C(F)(F)F)c1 [I-288] | 10 to 100 µM | 36 to 100 µM
CNC(=O)c1cnc(Nc2cn(C)nc2C)c(NC(=O)c2cc(F)cc(C(F)(F)F)c2)c1 [I-289] | 10 to 100 µM | 36 to 100 µM
CNC(=O)c1cnc(Nc2cccc(Cl)c2C)c(NC(=O)c2cc(F)cc(C(F)(F)F)c2)c1 [I-290] | 1 to 10 µM | 36 to 100 µM

SMILES | IC50 (H1047R PIK3CA enzyme) | IC50 (cells)
CNC(=O)c1cnc(Nc2ncco2)c(NC(=O)c2cc(F)cc(C(F)(F)F)c2)c1 [I-291] | 10 to 100 µM | 36 to 100 µM
CNC(=O)c1cnc(Nc2cccc(C(F)(F)F)c2)c(NC(=O)c2cc(F)cc(C(F)(F)F)c2)c1 [I-292] | 1 to 10 µM | 10 to 36 µM
CNC(=O)c1cnc(Nc2ccccc2Cl)c(NC(=O)c2cc(F)cc(C(F)(F)F)c2)c1 [I-293] | 0.1 to 0.5 µM | 1 to 5 µM
CNC(=O)c1cnc(Nc2cccc(C)c2Cl)c(NC(=O)c2cc(F)cc(C(F)(F)F)c2)c1 [I-294] | 1 to 10 µM | 36 to 100 µM
CNC(=O)c1cnc(Nc2ccc(C#N)cc2)c(NC(=O)c2cc(F)cc(C(F)(F)F)c2)c1 [I-295] | 1 to 10 µM | 36 to 100 µM
CNC(=O)c1cnc(Nc2cccc(F)c2F)c(NC(=O)c2cc(F)cc(C(F)(F)F)c2)c1 [I-296] | 0.1 to 0.5 µM | 5 to 10 µM
CNC(=O)c1cnc(Nc2cccc(C(C)(C)C)c2)c(NC(=O)c2cc(F)cc(C(F)(F)F)c2)c1 [I-297] | 1 to 10 µM | 36 to 100 µM
CNC(=O)c1cnc(Nc2ccccc2C(C)C)c(NC(=O)c2cc(F)cc(C(F)(F)F)c2)c1 [I-298] | 1 to 10 µM | 36 to 100 µM
CNC(=O)c1cnc(Nc2nccs2)c(NC(=O)c2cc(F)cc(C(F)(F)F)c2)c1 [I-299] | 10 to 100 µM | 36 to 100 µM
CNC(=O)c1cnc(Nc2ccccc2F)c(NC(=O)c2cc(F)cc(C(F)(F)F)c2)c1 [I-300] | 1 to 10 µM | 36 to 100 µM
CNC(=O)c1cnc(Nc2nc(C)c(C)s2)c(NC(=O)c2cc(F)cc(C(F)(F)F)c2)c1 [I-301] | 0.5 to 1 µM | 10 to 36 µM
CNC(=O)c1cnc(Nc2cccc(F)c2C)c(NC(=O)c2cc(F)cc(C(F)(F)F)c2)c1 [I-302] | 0.5 to 1 µM | 5 to 10 µM
CNC(=O)c1cnc(Nc2cccc(F)c2OC)c(NC(=O)c2cc(F)cc(C(F)(F)F)c2)c1 [I-303] | 1 to 10 µM | 36 to 100 µM
CNC(=O)c1cnc(Nc2nc(C)cs2)c(NC(=O)c2cc(F)cc(C(F)(F)F)c2)c1 [I-304] | 1 to 10 µM | 36 to 100 µM
CNC(=O)c1cnc(Nc2nn(C)cc2Br)c(NC(=O)c2cc(F)cc(C(F)(F)F)c2)c1 [I-305] | 10 to 100 µM | 36 to 100 µM
Cc1ccccc1Nc1ncc(CNS(=O)(=O)c2ccccc2)cc1NC(=O)c1cc(F)cc(C(F)(F)F)c1 [I-307] | 0.1 to 0.5 µM | 1 to 5 µM
Cc1ccccc1Nc1cc(=O)[nH]cc1NC(=O)c1csc2ccccc12 [I-308] | 1 to 10 µM | 36 to 100 µM
COC(=O)Cn1cc(NC(=O)c2csc3ccccc23)c(Nc2ccccc2C)cc1=O [I-309] | 1 to 10 µM | 36 to 100 µM
Cc1ccccc1Nc1cc(=O)n(CC(=O)O)cc1NC(=O)c1csc2ccccc12 [I-310] | 10 to 100 µM | 36 to 100 µM
Cc1ccccc1Nc1ncc(C(=O)NC2C[S+]([O-])C2)cc1NC(=O)c1csc2ccccc12 (centres unmarked) [I-311] | ≤ 0.1 µM | 1 to 5 µM
CNC(=O)c1cnc(Nc2ccccc2C)c(NC(=O)c2cc(F)cc(OC(F)(F)F)c2)c1 [I-312] | 1 to 10 µM | 36 to 100 µM

Reference: patent US20250090540A1, “PI3K-ALPHA INHIBITORS AND METHODS OF USE THEREOF” (Relay Therapeutics, Inc., priority 2021, published 2025)
